Test results taken from ChEMBL document CHEMBL1909046, “DrugMatrix in vitro pharmacology data”.

Assays:
[1] = molecular target: Beta-2 adrenergic receptor (Homo sapiens, UniProt P07550); experiment: DRUGMATRIX: Adrenergic beta2 radioligand binding (ligand: [3H] CGP-12177); format: cell membranes, Membrane; conditions: cho; Not Active = under 50% inhibition at 10 µM
[2] = molecular target: 5-hydroxytryptamine receptor 6 (Homo sapiens, UniProt P50406); format: cell membranes, HeLa, Membrane; conditions: hela; note: in other assays of this panel Not Active means under 50% inhibition at 10 µM
Chain of 5-hydroxytryptamine receptor 6 (P50406 whole entry): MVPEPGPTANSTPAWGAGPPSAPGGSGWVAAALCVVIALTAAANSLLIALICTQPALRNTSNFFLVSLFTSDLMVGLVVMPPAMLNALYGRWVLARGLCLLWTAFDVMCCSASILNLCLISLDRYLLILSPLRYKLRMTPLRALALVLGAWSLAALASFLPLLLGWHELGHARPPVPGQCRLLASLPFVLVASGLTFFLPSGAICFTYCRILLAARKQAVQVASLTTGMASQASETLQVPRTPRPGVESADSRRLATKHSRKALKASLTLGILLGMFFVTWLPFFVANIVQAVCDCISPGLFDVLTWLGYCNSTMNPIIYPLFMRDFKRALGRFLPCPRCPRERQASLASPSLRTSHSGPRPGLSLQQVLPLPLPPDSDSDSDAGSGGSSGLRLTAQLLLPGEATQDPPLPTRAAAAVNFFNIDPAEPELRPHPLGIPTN

[3] = DRUGMATRIX: GABAA, Chloride Channel, TBOB radioligand binding (ligand: [3H] TBOB); format: cell membranes, Rattus norvegicus, Wistar, Cerebral cortex, Membrane; conditions: Not Active = under 50% inhibition at 10 µM
[4] = DRUGMATRIX: GABAA, Flunitrazepam, Central radioligand binding (ligand: [3H] Flunitrazepam); format: cell membranes, Rattus norvegicus, Wistar, Brain, Membrane; conditions: Not Active = under 50% inhibition at 10 µM
[5] = DRUGMATRIX: Interleukin IL-1 radioligand binding (ligand: [125I] interleukin 1beta); format: cell membranes, Membrane; conditions: nih3t3; Not Active = under 50% inhibition at 10 µM
[6] = molecular target: Prostaglandin G/H synthase 1 (Homo sapiens, UniProt P23219); experiment: biochemical; format: tissue-based, Platelet; conditions: platelet;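 note: inhibition of COX-1 enzyme activity, with arachidonic acid supplied as substrate; in other assays of this panel Not Active means under 50% inhibition at 10 µM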
Chain of Prostaglandin G/H synthase 1 (P23219 whole entry): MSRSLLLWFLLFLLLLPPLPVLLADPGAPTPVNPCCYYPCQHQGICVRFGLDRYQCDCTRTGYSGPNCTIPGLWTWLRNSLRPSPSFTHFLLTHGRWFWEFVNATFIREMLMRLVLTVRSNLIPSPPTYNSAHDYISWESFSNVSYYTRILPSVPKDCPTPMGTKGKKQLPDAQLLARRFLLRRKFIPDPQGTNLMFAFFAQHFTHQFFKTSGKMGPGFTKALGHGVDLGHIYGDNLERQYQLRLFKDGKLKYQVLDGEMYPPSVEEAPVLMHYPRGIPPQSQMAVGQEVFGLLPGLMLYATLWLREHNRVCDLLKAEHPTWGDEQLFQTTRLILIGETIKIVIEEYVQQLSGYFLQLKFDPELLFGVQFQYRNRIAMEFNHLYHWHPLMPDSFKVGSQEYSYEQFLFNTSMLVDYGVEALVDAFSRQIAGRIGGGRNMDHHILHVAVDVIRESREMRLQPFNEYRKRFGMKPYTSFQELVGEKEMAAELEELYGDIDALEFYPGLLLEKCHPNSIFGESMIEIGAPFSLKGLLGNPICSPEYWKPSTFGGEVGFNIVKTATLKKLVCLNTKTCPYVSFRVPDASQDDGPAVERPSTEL

Vasopressin V1a receptor = Vasopressin V1a receptor (Homo sapiens, UniProt P37288); format: cell membranes, Membrane; conditions: hek293; note: in other assays of this panel Not Active means under 50% inhibition at 10 µM
Chain of Vasopressin V1a receptor (P37288 whole entry): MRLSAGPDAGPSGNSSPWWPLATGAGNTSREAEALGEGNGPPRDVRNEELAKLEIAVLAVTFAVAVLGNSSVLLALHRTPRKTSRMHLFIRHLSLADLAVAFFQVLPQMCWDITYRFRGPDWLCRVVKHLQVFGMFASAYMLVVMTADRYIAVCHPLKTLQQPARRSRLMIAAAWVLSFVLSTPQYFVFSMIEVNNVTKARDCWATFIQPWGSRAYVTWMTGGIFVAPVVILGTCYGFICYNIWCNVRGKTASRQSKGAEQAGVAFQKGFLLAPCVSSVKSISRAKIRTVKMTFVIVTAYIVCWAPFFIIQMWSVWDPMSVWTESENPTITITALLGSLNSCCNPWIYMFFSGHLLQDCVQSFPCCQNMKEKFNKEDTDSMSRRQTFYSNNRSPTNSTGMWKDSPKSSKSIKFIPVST

[7] = molecular target: T1, Angiotensin-converting enzyme (Oryctolagus cuniculus, UniProt P12822); format: tissue-based, Lung;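 note: enzymatic inhibition of angiotensin-converting enzyme measured with FAPGG as the substrate; in other assays of this panel Not Active means under 50% inhibition at 10 µM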
T1 sequence (P12822 whole entry): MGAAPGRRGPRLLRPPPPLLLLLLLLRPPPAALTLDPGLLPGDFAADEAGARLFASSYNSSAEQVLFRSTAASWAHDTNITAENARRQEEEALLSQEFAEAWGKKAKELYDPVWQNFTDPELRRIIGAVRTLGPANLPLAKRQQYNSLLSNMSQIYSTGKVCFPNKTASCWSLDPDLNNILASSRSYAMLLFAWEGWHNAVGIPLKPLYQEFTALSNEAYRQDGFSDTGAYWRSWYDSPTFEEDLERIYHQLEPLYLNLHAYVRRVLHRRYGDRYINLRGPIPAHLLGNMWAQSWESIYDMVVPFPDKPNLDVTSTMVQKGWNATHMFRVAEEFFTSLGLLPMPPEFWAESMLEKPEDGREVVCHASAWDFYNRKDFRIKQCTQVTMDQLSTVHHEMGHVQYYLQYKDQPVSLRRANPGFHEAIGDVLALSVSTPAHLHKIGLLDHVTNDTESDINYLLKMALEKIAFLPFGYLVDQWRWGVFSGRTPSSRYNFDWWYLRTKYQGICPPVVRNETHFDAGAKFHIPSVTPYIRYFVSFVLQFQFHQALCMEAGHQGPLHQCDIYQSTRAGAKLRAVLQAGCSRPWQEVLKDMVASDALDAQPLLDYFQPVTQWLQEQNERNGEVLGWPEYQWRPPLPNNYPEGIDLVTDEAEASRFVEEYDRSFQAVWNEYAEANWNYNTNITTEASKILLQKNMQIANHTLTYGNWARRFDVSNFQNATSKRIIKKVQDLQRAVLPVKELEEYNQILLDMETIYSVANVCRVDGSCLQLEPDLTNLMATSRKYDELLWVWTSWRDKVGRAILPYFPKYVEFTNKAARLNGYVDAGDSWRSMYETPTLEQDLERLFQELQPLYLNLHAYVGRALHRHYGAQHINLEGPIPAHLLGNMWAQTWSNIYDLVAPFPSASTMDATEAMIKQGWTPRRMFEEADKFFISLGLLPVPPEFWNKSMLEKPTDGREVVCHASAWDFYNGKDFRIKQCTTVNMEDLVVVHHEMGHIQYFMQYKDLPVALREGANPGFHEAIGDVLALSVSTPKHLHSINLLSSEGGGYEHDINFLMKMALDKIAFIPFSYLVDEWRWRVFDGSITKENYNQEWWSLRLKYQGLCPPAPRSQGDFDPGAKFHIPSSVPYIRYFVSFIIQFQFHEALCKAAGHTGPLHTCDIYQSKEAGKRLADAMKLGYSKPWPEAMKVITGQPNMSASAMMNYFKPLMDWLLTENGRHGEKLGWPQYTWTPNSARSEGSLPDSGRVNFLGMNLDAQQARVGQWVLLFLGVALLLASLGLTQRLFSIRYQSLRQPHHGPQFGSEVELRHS

Chain of Beta-2 adrenergic receptor (P07550 whole entry): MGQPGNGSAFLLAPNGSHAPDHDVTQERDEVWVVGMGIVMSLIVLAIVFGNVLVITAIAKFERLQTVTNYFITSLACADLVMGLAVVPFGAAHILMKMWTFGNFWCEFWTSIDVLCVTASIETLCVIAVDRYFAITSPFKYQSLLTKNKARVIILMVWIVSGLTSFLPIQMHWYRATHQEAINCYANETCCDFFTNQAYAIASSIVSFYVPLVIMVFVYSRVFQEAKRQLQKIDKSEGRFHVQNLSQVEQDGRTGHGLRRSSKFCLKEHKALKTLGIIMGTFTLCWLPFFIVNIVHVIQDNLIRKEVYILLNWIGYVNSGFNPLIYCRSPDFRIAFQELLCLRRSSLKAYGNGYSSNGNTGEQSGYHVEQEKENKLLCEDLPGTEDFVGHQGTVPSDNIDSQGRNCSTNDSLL

COc1ccc(C[C@H]2NC[C@H](O)[C@H]2OC(C)=O)cc1 [ANISOMYCIN]
Not Active: IC50 [1] | Ki [1] | IC50 [2] | Ki [2] | IC50 [3] | Ki [3] | IC50 [4] | Ki [4] | IC50 [5] | Ki [5] | IC50 [6] | Ki [6] | IC50 (Vasopressin V1a receptor) | Ki (Vasopressin V1a receptor) | IC50 [7] | Ki [7]

CNNCc1ccc(C(=O)NC(C)C)cc1 [PROCARBAZINE]
Not Active: IC50 [1] | IC50 [2] | IC50 [3] | Ki [3] | IC50 [4] | Ki [4] | IC50 [5] | Ki [5] | IC50 [6] | IC50 (Vasopressin V1a receptor) | IC50 [7]

Cc1onc(O)c1CC(N)C(=O)O (racemic) [(R,S)-AMPA]
Not Active: IC50 [1] | IC50 [2] | IC50 [3] | Ki [3] | IC50 [4] | Ki [4] | IC50 [5] | Ki [5] | IC50 [6] | IC50 (Vasopressin V1a receptor) | IC50 [7]

Cc1c(O)c(=O)ccn1C [DEFERIPRONE]
Not Active: IC50 [1] | IC50 [2] | IC50 [3] | Ki [3] | IC50 [4] | Ki [4] | IC50 [5] | Ki [5] | IC50 [6] | IC50 (Vasopressin V1a receptor) | IC50 [7]

Nc1ncn([C@@H]2O[C@H](CO)[C@@H](O)[C@H]2O)c(=O)n1 [AZACITIDINE]
Not Active: IC50 [1] | IC50 [2] | IC50 [3] | Ki [3] | IC50 [4] | Ki [4] | IC50 [5] | Ki [5] | IC50 [6] | IC50 (Vasopressin V1a receptor) | IC50 [7]

CCn1cc(C(=O)O)c(=O)c2cc(F)c(N3CCNCC3)cc21 [NORFLOXACIN]
Not Active: IC50 [1] | IC50 [2] | IC50 [3] | Ki [3] | IC50 [4] | Ki [4] | IC50 [5] | Ki [5] | IC50 [6] | IC50 (Vasopressin V1a receptor) | IC50 [7]

CN(C)CCCN1c2ccccc2Sc2ccc(Cl)cc21 [CHLORPROMAZINE]
Not Active: IC50 [1] | IC50 [3] | Ki [3] | IC50 [4] | Ki [4] | IC50 [5] | Ki [5] | IC50 [6] | IC50 (Vasopressin V1a receptor) | IC50 [7]

CCOC(=O)C1=C(COCCN)NC(C)=C(C(=O)OC)C1c1ccccc1Cl (configuration not stated) [AMLODIPINE]
Not Active: IC50 [1] | IC50 [3] | Ki [3] | IC50 [4] | Ki [4] | IC50 [5] | Ki [5] | IC50 [6] | IC50 (Vasopressin V1a receptor) | IC50 [7]

CC1Cc2ccccc2N1NC(=O)c1ccc(Cl)c(S(N)(=O)=O)c1 (configuration not stated) [INDAPAMIDE]
Not Active: IC50 [1] | IC50 [2] | IC50 [3] | Ki [3] | IC50 [4] | Ki [4] | IC50 [5] | Ki [5] | IC50 [6] | IC50 (Vasopressin V1a receptor) | IC50 [7]

Cc1ccc(-c2cc(C(F)(F)F)nn2-c2ccc(S(N)(=O)=O)cc2)cc1 [CELECOXIB]
Not Active: IC50 [1] | IC50 [2] | IC50 [3] | Ki [3] | IC50 [4] | Ki [4] | IC50 [5] | Ki [5] | IC50 (Vasopressin V1a receptor) | IC50 [7]

CC(C)(C)NCC(O)c1cc(Cl)c(N)c(Cl)c1 (configuration not stated) [CLENBUTEROL]
Not Active: IC50 [2] | IC50 [3] | Ki [3] | IC50 [4] | Ki [4] | IC50 [5] | Ki [5] | IC50 [6] | IC50 (Vasopressin V1a receptor) | IC50 [7]

COCCc1ccc(OCC(O)CNC(C)C)cc1 (configuration not stated) [METOPROLOL]
Not Active: IC50 [2] | IC50 [3] | Ki [3] | IC50 [4] | Ki [4] | IC50 [5] | Ki [5] | IC50 [6] | IC50 (Vasopressin V1a receptor) | IC50 [7]

CNCCCN1c2ccccc2CCc2ccccc21 [DESIPRAMINE]
Not Active: IC50 [2] | IC50 [3] | Ki [3] | IC50 [4] | Ki [4] | IC50 [5] | Ki [5] | IC50 [6] | IC50 (Vasopressin V1a receptor) | IC50 [7]

COc1cc2nc(N3CCN(C(=O)C4COc5ccccc5O4)CC3)nc(N)c2cc1OC (configuration not stated) [DOXAZOSIN]
Not Active: IC50 [2] | IC50 [3] | Ki [3] | IC50 [4] | Ki [4] | IC50 [5] | Ki [5] | IC50 [6] | IC50 (Vasopressin V1a receptor) | IC50 [7]

C[C@H](CS)C(=O)N1CCC[C@H]1C(=O)O [CAPTOPRIL]
Not Active: IC50 [1] | IC50 [2] | IC50 [3] | Ki [3] | IC50 [4] | Ki [4] | IC50 [5] | Ki [5] | IC50 [6] | IC50 (Vasopressin V1a receptor)
